# In US20240108632A1, “PHARMACEUTICAL COMPOSITION FOR ADMINISTRATION AS OPHTHALMIC DROP TO PATIENT REQUIRING OPTIC NERVE PROTECTION” (PINOTBIO, INC., priority 2020, published 2024):
# Assays:
# normal patients = conditions: cited from earlier work
# [1] = cited from earlier work
# [2] = tested on: cynomolgus macaque model of glaucoma; experiment: Retinal nerve fiber layer thickness by OCT in cynomolgus macaque model of glaucoma; type: in vivo
# Description: (§1) Three weeks before the first laser trabeculoplasty, IOP was measured via a tomometer (SPHPR-320-61), once per week for three weeks. The first laser trabeculoplasty was performed in one eye for each macaque. Two weeks later, laser trabeculoplasty was repeated in the same eye (Week 0).
# (§2) One week after the second laser trabeculoplasty (Week 1), IOP was measured and retinal nerve fiber layer (RNFL) thickness was measured via optical coherence tomography (OCT; RS3000 Advance, Nidek Co. Ltd., Gamagoori, Japan) (SPHPR- 320-58). The day after group assignment, the eyes were instilled with either vehicle, KR-67607 or brimonidine twice a day. On Day 1, the effect of treatment on IOP over time was measured before treatment and 1, 2, 4, and 8 hrs. after instillation. At the same time, blood samples were obtained. From the effects of dosing observed on Day 1, it was determined that 2 hrs. was a reasonable time time-to-test following instillation for subsequent observations.
# (§3) Intraocular pressures were obtained at Weeks 2, 3, 4, 5, 7 and 9. Optical coherence tomography and color fundus photography (CFP) were performed at Weeks 1, 3, 5, 7, and 9 (SPHPR-320-56).
# [3] = tested on: cynomolgus macaque model of glaucoma; experiment: Intraocular pressure in cynomolgus macaque model of glaucoma (laser trabeculoplasty); type: in vivo
# Description: as §1, §2, §3
# Following measurements at Week 9, G3 macaques was randomized into two groups based on IOP, and the effect of KR-67607 (1.5 mg/mL, 3.0 mg/mL) on IOP was evaluated.
# [4] = tested on: cynomolgus macaque model of glaucoma; experiment: Funduscopy in cynomolgus macaque model of glaucoma; type: in vivo
# Description: as §1, §2, §3
compound,measurement,setting,value
CC1(C)[C@@H](OC(=O)CCC(=O)O)CC[C@]2(C)[C@H]3C(=O)C=C4[C@@H]5C[C@@](C)(C(=O)O)CC[C@]5(C)CC[C@@]4(C)[C@]3(C)CC[C@@H]12 [carbenoxolone],reduce intraocular pressure to levels as low as,normal patients,20%
2-hydroxypropyl-β-cyclodextrin [HP-β-CD],solubility in water,[1],more than 1 g/ml
Brimonidine tartrate [reference compound],number of eyes with RNFL thickness greater than 50% compared to baseline,"[2]; Week 9, 6 eyes per group",1
same,RNFL thinning in glaucomatous eyes,"[2]; repeated treatment, compared to vehicle-treated (G1)",appeared to inhibit
same,"maximum decrease of IOP, contralateral normal eye","[3]; Day 1 dosing, 2 hours after dosing",4.1±0.9 mmHg
same,"maximum decrease of IOP, glaucomatous eye","[3]; Day 1 dosing, 2 hours after instillation",19.5±2.7 mmHg
same,effect on trough IOP value,"[3]; glaucomatous eyes, repeated treatment twice a day, brimonidine tartrate 0.1%, KR-67607 1.5 mg/mL",did not significantly affect
same,"maximum decrease of IOP, normal eye",[3]; over weeks,4.9±0.8 mmHg
same,animals with a lesser degree of cupping compared to G1,[4]; Week 3 to Week 5,three animals
same,animals with a small or lesser degree of cupping,[4]; Week 9,one animal
